Measurements as given in patent US20060177517A1, “Antiinflammtory agent and antiinflammatory medical material” (priority 2003, published 2006).

Key:
[1] = system: Streptococcus mutans JC2 strain; test: Suppression of intraoral bacteria growth, absorbance at 595 nm; assay type: cell-based; conditions: 24 hours after treatment
Method: A test of suppression of bacterial growth with the polyphosphoric acid obtained according to the above production example was conducted using intraoral bacteria, Streptococcus mutans (S. mutans) and Porphylomonas gingivalis (P gingivalis). The S. mutans JC2 strain was anaerobically cultured at 37° C. using Heart infusion media. For the treated groups, polyphosphoric acid was added to the culture solutions at different concentrations (0%, 0.06%, and 0.5%). For comparison groups, phosphate buffers were added at different concentrations (0%, 0.06%, and 0.5%) to culture solutions. The bacteria were cultured for a maximum of 2 days. […] In the meantime, the P. gingivalis ATCC33277 strain was anaerobically cultured using brain-heart-infusion media at 37° C. for the same time period as employed above by adding polyphosphoric acid at different concentrations (0%, 0.015%, 0.03%, 0.06%, 0.12%, 0.25%, and 0.5%) to culture solutions. Bacterial growth was observed over time by measuring absorbance at 595 nm.

human neutrophils = test: IL-1β production by human neutrophils treated with GMDP and/or polyphosphoric acid (ELISA); assay type: cell-based
Method: To confirm the effect of suppressing inflammatory cytokine production with the polyphosphoric acid obtained according to the above production example, an experiment was conducted to observe IL-1β production using human neutrophils. Neutrophils were separated from 25 ml of human blood and then suspended in a Dulbecco's Modified Eagle's Medium. […] Treatment was carried out for maximum of 5 hours at 37° C. […] The IL-1β production amount at each time point was measured using an ELISA Kit.

[2] = system: periodontal tissue inflammation; test: Suppression of periodontal tissue inflammation in rat artificial periodontal pockets (HE staining); assay type: in vivo, Wister rats; conditions: approx. 0.1 ml of 1% solution injected into gingival crevice every day for 10 days
Method: Male Wister rats (8-week-old; 10 rats in total) were anesthetized, and then the periosteum of the alveolar part of maxillary first molar tooth was stripped. Portions of approximately 2 mm were eliminated from the buccal alveolar apexes of the maxillary first molar tooth and of the maxillary second molar tooth, using a ½ round bar, thereby forming artificial periodontal pockets (gingival crevices). In the case of the treated group (5 rats), approximately 0.1 ml of 1% polyphosphoric acid solution was injected into each gingival crevice using a syringe. Furthermore, in the case of the comparison group (5 rats), only a 1% phosphate buffer was injected. This injection procedure was carried out every day for 10 days from the day following the operation for the preparation of gingival crevices. Rats that had been treated for a certain time period were euthanized under inhalation anesthesia (ether). The maxilla bones were amputated, and then the tissues were fixed for 1 day by immersion using 10% neutral buffered formalin (pH 7.4). Subsequently, the resultants were subjected to acid demineralization at room temperature for approximately 2 days. After completion of demineralization, the samples were trimmed by excision at the second molar tooth, and then paraffin-embedded with their cut surfaces positioned downward. […]

[3] = system: P. gingivalis ATCC33277 strain; test: Suppression of intraoral bacteria growth, absorbance at 595 nm; assay type: cell-based, Porphylomonas gingivalis; conditions: polyphosphoric acid concentration of 0.01%, 48 hours after treatment
Method: A test of suppression of bacterial growth with the polyphosphoric acid obtained according to the above production example was conducted using intraoral bacteria, Streptococcus mutans (S. mutans) and Porphylomonas gingivalis (P gingivalis). The S. mutans JC2 strain was anaerobically cultured at 37° C. using Heart infusion media. For the treated groups, polyphosphoric acid was added to the culture solutions at different concentrations (0%, 0.06%, and 0.5%). For comparison groups, phosphate buffers were added at different concentrations (0%, 0.06%, and 0.5%) to culture solutions. […] Bacterial growth was observed over time by measuring absorbance at 595 nm.

[4] = system: inflammation at wound site; test: Suppression of inflammation at wound site, rat dorsal wound model (HE staining); assay type: in vivo, Wistar rat; conditions: 1% solution locally injected 5 days a week
From the text: The dorsum of each 6-week-old male Wistar rat was shaved under ether anesthesia, and then a 20-mm incision was made along the long axis of the body with a depth reaching to the fascia. Both ends of the center of the wound were stitched to the fascia using a piece of string so as to produce a 5-mm-wide spindle-shaped wound model (FIG. 4). A 1% polyphosphoric acid solution was locally injected 5 days a week into each wound of the rats in the treated group. A 1% phosphate buffer was locally injected 5 days a week into each wound of the rats in the comparison group. The rats were euthanized on days 3 and 7. Tissue located in the area extending from 5 mm to the left of and 5 mm to the right of the wound center was obtained by excising skin on the fascia as shown in FIG. 4. The tissues were subjected to HE staining and then histopathological observance was carried out.

Compound: O=P(O)(O)O [phosphoric acid, reference compound]
- bacterial growth of S. mutans ([1]; phosphoric acid concentration of 0.5%): no large changes

Compound: CC(=O)NC1C(OC2C(CO)OC(O)C(NC(C)=O)C2OC(C)C(=O)NC(C)C(=O)NC(CCC(=O)O)C(N)=O)OC(CO)C(O)C1O [GMDP, N-Acetyl-D-Glucosaminyl-β(1-4)-N-acetylmuramyl-L-alanyl-D-isoglutamine, reference compound]
- IL-1β production amount (human neutrophils; 30 μg GMDP alone, up to 5 hours): increased with time

Compound: polyphosphoric acid
- IL-1β production amount (human neutrophils; GMDP plus polyphosphoric acids (0.2, 1, 5 mM), 5 hours after treatment): decreased depending on the concentrations of the polyphosphoric acids
- IL-1β production amount (human neutrophils; GMDP plus polyphosphoric acids (0.2, 1, 5 mM), until 3 hours after treatment, versus GMDP alone): suppressed to a level similar to that of the comparison group
- IL-1β production amount (human neutrophils; polyphosphoric acids alone (0.2, 1, 5 mM), no GMDP): almost the same at any polyphosphoric acid concentration as that in the case of the comparison group
- inflammatory cells in the peripheries of the treated sites [2]: Almost no inflammatory cells were observed
- bacterial growth of S. mutans ([1]; polyphosphoric acid concentration of 0.06%): significantly suppressed bacterial growth
- bacterial growth of P. gingivalis [3]: significantly suppressed bacterial growth
- extension of the epithelia toward the centers of the wounds ([4]; day 3 after operation): significant extension
- infiltration by inflammatory cells at the wound ([4]; day 3 after operation): infiltration by inflammatory cells decreased
- epithelialization of the wound surfaces ([4]; day 7 after operation): almost completely epithelialized
- extension of the epithelia at the cut ends of the wounds, compared with the comparison group ([4]; day 7 after operation): promoted
- inflammation at the centers of the wounds ([4]; day 7 after operation): inflammation remained slight and partial on the upper parts
